In brackets after ≈: the same amount, converted by molar mass. Where only a bound is given, the exact number is not on record here.

One may read the EC50 as the midpoint of the concentration-response curve. The term solubility denotes how much of the substance goes into solution per volume. A lower solubility goes with a poorly soluble substance.

The target in data set [1] is T1, human soluble guanylate cyclase alpha 1 and beta 1 subunits (sGC) stably expressed in Chinese hamster ovary cells (Homo sapiens, UniProt Q02108+Q02153).
T1 construct: expressed in transfected cells; host or cells: Chinese hamster ovary cells, stably transfected
T1 sequence (Q02108 1-690 partner): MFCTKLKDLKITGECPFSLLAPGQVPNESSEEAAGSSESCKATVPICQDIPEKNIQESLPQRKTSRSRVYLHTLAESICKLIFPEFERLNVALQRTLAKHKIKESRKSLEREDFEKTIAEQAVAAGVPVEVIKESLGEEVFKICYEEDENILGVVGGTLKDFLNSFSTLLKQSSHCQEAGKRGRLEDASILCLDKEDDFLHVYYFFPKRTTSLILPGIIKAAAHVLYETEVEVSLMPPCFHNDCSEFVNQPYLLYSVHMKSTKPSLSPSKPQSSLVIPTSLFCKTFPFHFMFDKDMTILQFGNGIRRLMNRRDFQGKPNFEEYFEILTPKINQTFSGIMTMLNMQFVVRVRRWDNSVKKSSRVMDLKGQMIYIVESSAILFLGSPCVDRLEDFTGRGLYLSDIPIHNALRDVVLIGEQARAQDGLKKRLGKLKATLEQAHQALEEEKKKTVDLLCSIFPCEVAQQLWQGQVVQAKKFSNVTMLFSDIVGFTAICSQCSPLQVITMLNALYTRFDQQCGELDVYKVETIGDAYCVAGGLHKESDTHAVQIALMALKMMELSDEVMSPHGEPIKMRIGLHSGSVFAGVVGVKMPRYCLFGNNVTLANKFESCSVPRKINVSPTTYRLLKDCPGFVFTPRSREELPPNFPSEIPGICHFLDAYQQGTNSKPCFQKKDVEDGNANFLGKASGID
T1 sequence (Q02153 1-619): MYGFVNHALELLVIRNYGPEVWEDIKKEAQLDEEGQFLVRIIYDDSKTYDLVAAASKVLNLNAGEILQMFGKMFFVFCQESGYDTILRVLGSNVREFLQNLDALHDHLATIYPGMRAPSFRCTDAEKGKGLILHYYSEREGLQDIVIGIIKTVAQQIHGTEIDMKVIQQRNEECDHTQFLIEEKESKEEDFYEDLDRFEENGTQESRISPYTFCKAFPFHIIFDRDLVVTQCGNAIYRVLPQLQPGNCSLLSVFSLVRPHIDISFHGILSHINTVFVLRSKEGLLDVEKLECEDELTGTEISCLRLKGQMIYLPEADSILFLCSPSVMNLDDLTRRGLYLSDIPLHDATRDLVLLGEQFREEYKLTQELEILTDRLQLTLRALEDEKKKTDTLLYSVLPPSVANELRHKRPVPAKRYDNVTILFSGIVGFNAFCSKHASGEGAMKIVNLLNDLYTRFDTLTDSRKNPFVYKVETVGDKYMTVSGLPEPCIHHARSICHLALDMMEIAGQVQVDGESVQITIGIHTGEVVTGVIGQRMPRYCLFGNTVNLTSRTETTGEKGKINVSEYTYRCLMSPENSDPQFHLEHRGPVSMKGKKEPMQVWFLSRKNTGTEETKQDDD
The data set is described as follows: sGC cellular activator assay: cGMP in CHO cells expressing human sGC, preincubated with ODQ. In kind it is cell-based. The note with it: 40 microM ODQ preincubation, 30 min at room temperature, presence or absence of 50% human serum not given, read-out: EC50 nM, Activity of Compounds in Cellular Assay. The protocol:
The sGC cellular activator assay is performed in the presence and absence of 50% human serum (HS) using Chinese hamster ovary cells that have been stably transfected to express the human soluble guanylate cyclase alpha 1 and beta 1 subunits (sGC). Cells are preincubated with 40 microM 1H-[1,2,4]oxadiazolo[4,3-a]quinoxalin-1-one (ODQ), an sGC inhibitor, for one hour in buffer containing 0.1% bovine serum albumin and 3-isobutyl-1-methylxanthine (IBMX). Concentration response curves are prepared for test compounds in DMSO. An intermediate dilution of the compounds is performed in either buffer containing IBMX or type AB HS containing IBMX. Diluted compounds are added to cells and they are incubated at room temperature for thirty minutes. cGMP is measured using a CisBio homogeneous time resolved fluorescence kit and the EC50 is calculated for each compound.

Data set [2] can be described thus: Assessment of solubility: HT solubility in pION buffer, UV spectrophotometry. The note with it: kinetic from dmso stock.
Experimental: Solubility is measured by the following method.
DMSO stock samples at 10 mM concentration are prepared. […] The samples are pierced and 100 ul of thawed samples are transferred into the PCR plate for analysis. Each sample is run in duplicate at each pH (pH 4.5 and 7.4). Up to 95 samples can be run in replicate at 2 pH's+1 DMSO (blank).
Preparation of pH 4.5 and 7.4 Buffers:
• pH 4.5 buffer:—To 12.5 of system solution (pION)qs to 500 mL of distilled water (pH 2.85-2.90); adjust the pH to pH 4.5 with 0.5 N NaOH. • pH 7.4 buffer: To 12.5 of system solution (pION)qs to 500 mL of distilled water (pH 2.85-2.90); adjust the pH to pH 7.4 with 0.5N NaOH. […] Procedure: Preparation of UV Blank Plate:
75 ul of buffer (pH 7.4 or pH 4.5) is added to UV plate followed by addition of 70 ul of N-propanol. The solution is mixed and the blank spectrum is read using spectrophotometer.
Preparation of Reference UV Plate:
10 ul of each stock sample (including DMSO control) is added to 190 ul of N-propanol to prepare the reference stock plate. Reference stock samples are mixed and 5 ul of each stock sample is added to UV blank plate after it is read spectrophotometrically. The reference stock sample is mixed with blank solution in UV plate and the reference spectrum is read using UV spectrophotometer.
Preparation of Sample for Incubation:
Solubility at pH 7.4:6 ul of each stock sample (including DMSO control) is added to the storage plate containing 600 ul of pH 7.4 buffer, mixed and incubated for 16-19 h. The plate is sealed well during the incubation process. The DMSO content in the sample is 1.0%. The concentration in deep well plates is 100 uM
6 ul of each stock sample (including DMSO control) is added to the deep well plate containing 600 ul of pH 4.5 buffer, mixed and incubated for 16-19 h. The plate is sealed well during the incubation process. The DMSO content in the sample is 1.0%. The concentration in deep well plates is 100 uM
Preparation of Sample UV Plate:
At the end of the incubation period, 100 uL of sample from the storage plate is vacuum filtered using a filter plate. This step wets the filters and the filtrate is discarded. Another 200 ul of the sample from the deep well plate is vacuum filtered using the same filter block but a clean filter plate. 75 ul of the filtrate from the filter plate is transferred to a UV sample plate. 75 ul of N-propanol is added to this UV plate. The solution is mixed and the spectrum is read using the UV spectrophotometer.
The spectra collected for blank, reference and sample from 250-498 nm is analyzed using pION software. If the sample precipitates out, the solubility is reported as XX μg/ml.
[3] abbreviates: pH 6.8, aqueous buffer, Solubility (pH 6.8), pH 6.8.
Where [4] appears, read: pION system solution buffer, pH 4.5, pH 4.5, aqueous buffer, Solubility (pH 4.5), pH 4.5 buffer, 16-19 h incubation, 1.0% DMSO.

In the case of `CC[C@]1(C(=O)O)[C@@H]2CC[C@H]1CN(c1nc(-c3cc(C)ccc3OCc3ccc(C(=O)N4CCCCC4)cc3C)cs1)C2` [Compound 250, 8-ethyl-3-(4-{5-methyl-2-[2-methyl-4-(piperidine-1-carbonyl)-benzyloxy]-phenyl}-thiazole-2-yl)-3-aza-bicyclo[3.2.1]octane-8(syn)-carboxylic acid], in data set [1], the EC50 was 140 nM. The results for the solubility in data set [2] (setting [3]) and in data set [2] (setting [4]) were 13 µg/mL (≈ 22.1 µM) and less than 0.1 µg/mL, respectively.

With `Cc1ccc(OCc2ccc(C(=O)N3CCCCC3)cc2C)c(-c2csc(N3CC(CC(=O)O)C3)n2)c1` [Compound 251], the EC50 in data set [1] is 240 nM. The results for the solubility in data set [2] (setting [3]) and in data set [2] (setting [4]) were 56 µg/mL (≈ 108 µM) and 0.15 µg/mL (≈ 0.289 µM), respectively.

As to `Cc1ccc(OCc2ccc(CN3CCS(=O)(=O)CC3)cc2C)c(-c2csc(N3CC4(CC4C(=O)O)C3)n2)c1` (stereo not drawn) [Compound 252], the EC50 in data set [1] was determined as 260 nM. Further, the solubility is 0.2 µg/mL (≈ 0.352 µM) in data set [2] (setting [3]) and less than 0.1 µg/mL in data set [2] (setting [4]).

Take `Cc1ccc(OCc2ccc(CN3CCS(=O)(=O)CC3)cc2C)c(-c2csc(N3CC(CC(=O)O)C3)n2)c1` [Compound 253]: in data set [1], the EC50 is 380 nM. Further, the solubility in data set [2] (setting [3]) was 0.29 µg/mL (≈ 0.522 µM); in data set [2] (setting [4]), 0.5 µg/mL (≈ 0.9 µM).

In the case of `Cc1ccc(OCc2ccc(CN3CCOCC3)cc2C)c(-c2csc(N3CC(CC(=O)O)C3)n2)c1` [Compound 254], the EC50 in data set [1] was determined as 450 nM. Further, the values for the solubility in data set [2] (setting [3]) and in data set [2] (setting [4]) were 51 µg/mL (≈ 100 µM) and 40 µg/mL (≈ 78.8 µM), respectively.

As to `Cc1ccc(OCc2ccc(CN3CCN(C(=O)C4CC4)CC3)cc2C)c(-c2csc(N3CC(C4(C(=O)O)CC4)C3)n2)c1` [Compound 255], in data set [1], the EC50 was 480 nM. The results for the solubility in data set [2] (setting [3]) and in data set [2] (setting [4]) were 0.94 µg/mL (≈ 1.56 µM) and 6 µg/mL (≈ 9.99 µM), respectively.

Turning to `Cc1ccc(OCc2ccc(C(=O)N3CCOCC3)cc2C)c(-c2csc(N3CC4(CC4C(=O)O)C3)n2)c1` (stereo not drawn) [Compound 256], the EC50 in data set [1] turned out to be 500 nM. Besides, the solubility in data set [2] (setting [3]) is 82 µg/mL (≈ 154 µM); in data set [2] (setting [4]), 0.69 µg/mL (≈ 1.29 µM).

`Cc1ccc(OCc2ccc(CN3CCOCC3)cc2C)c(-c2csc(N3CC4(CC4C(=O)O)C3)n2)c1` (stereo not drawn) [Compound 257]: the EC50 in data set [1] was 540 nM. In addition, the solubility in data set [2] (setting [3]) amounted to 45 µg/mL (≈ 86.6 µM); in data set [2] (setting [4]), 56 µg/mL (≈ 108 µM).

On to `COC[C@]1(C(=O)O)[C@@H]2CC[C@H]1CN(c1nc(-c3cc(C)ccc3OCc3ccc(C(=O)N4CCCCC4)cc3C)cs1)C2` [Compound 258], for which, in data set [1], the EC50 worked out at 550 nM. Further, the results for the solubility in data set [2] (setting [3]) and in data set [2] (setting [4]) were 8.2 µg/mL (≈ 13.6 µM) and less than 0.1 µg/mL, respectively.

Regarding `Cc1ccc(OCc2ccc(CN3CCS(=O)(=O)CC3)cc2C)c(-c2csc(N3CC(C4(C(=O)O)CC4)C3)n2)c1` [Compound 259], the EC50 in data set [1] was 580 nM. In addition, the solubility in data set [2] (setting [3]) was 19 µg/mL (≈ 32.7 µM); in data set [2] (setting [4]) it was less than 0.1 µg/mL.

Turning to `Cc1ccc(OCc2ccc(C(=O)N3CCCCC3)cc2C)c(-c2csc(N3CC(C4(C(=O)O)CC4)C3)n2)c1` [Compound 260], in data set [1], the EC50 came out at 590 nM. For the same compound, the figures for the solubility in data set [2] (setting [3]) and in data set [2] (setting [4]) were 14 µg/mL (≈ 25.7 µM) and less than 0.1 µg/mL, respectively.

Consider `Cc1ccc(OCc2ccc(CN3CCOCC3)cc2C)c(-c2csc(N3CC(C4(C(=O)O)CC4)C3)n2)c1` [Compound 261], for which the EC50 in data set [1] is 710 nM. Besides, the solubility in data set [2] (setting [3]) was 6.4 µg/mL (≈ 12 µM); in data set [2] (setting [4]) it was 17 µg/mL (≈ 31.9 µM).

`CCCC1(C(=O)O)C2CCC1CN(c1nc(-c3cc(C)ccc3OCc3ccc(C(=O)N4CCCCC4)cc3C)cs1)C2` (stereo not drawn) [Compound 262]: in data set [1], the EC50 is 980 nM. The solubility is 12 µg/mL (≈ 19.9 µM) in data set [2] (setting [3]) and less than 0.1 µg/mL in data set [2] (setting [4]).

Turning to `Cc1ccc(OCc2ccc(C(=O)N3CCCCC3)cc2C#N)c(-c2csc(N3C[C@H]4CC[C@@H](C3)[C@H]4C(=O)O)n2)c1` [Compound 263], in data set [1], the EC50 stood at 13 nM. The solubility in data set [2] (setting [3]) stood at 58 µg/mL (≈ 102 µM); in data set [2] (setting [4]), 0.3 µg/mL (≈ 0.526 µM).

For `Cc1ccc(OCc2ccc(CN3CCOCC3)cc2C#N)c(-c2csc(N3C[C@H]4CC[C@@H](C3)[C@H]4C(=O)O)n2)c1` [Compound 264], in data set [1], the EC50 turned out to be 21 nM. The solubility in data set [2] (setting [3]) turned out to be 12 µg/mL (≈ 21.5 µM); in data set [2] (setting [4]), 21 µg/mL (≈ 37.6 µM).

The record behind these values is patent publication US8815857B2 (Boehringer Ingelheim International GmbH, priority 2011, dated 2014).
